Experimental data from patent US20230043863A1, “HETEROAROMATIC DERIVATIVES FOR USE AS REGULATOR, PREPARATION METHOD THEREFOR AND USE THEREOF” (JIANGSU HANSOH PHARMACEUTICAL GROUP CO., LTD., priority 2018, published 2023).

System: C57BL/6 mouse colitis model induced by DSS
Experiment: C57BL/6 mouse colitis model induced by DSS, daily disease index
Type: in vivo
Details: po, 216 h, 10 mg/kg p.o. BID, Day 0-9, vs vehicle group, read-out: reduction ratio of DAI AUC
Procedure: To evaluate the drug efficacy of the embodiment compound on the C57BL/6 mouse colitis model induced by DSS (dextran sulfate sodium).
According to the weight of the animal, BioBook software was used to randomly group the animals on day −1 to ensure that the weight values of each group of animals were similar to reduce deviation, and the grouping and dosing regimen are shown in the following Table.
Drinking water containing DSS: an appropriate amount of DSS powder was dissolved in the autoclaved drinking water to prepare a 2% DSS solution.
On day −1, the animals were equally divided into 12 groups with 10 animals in each group. (Refer to Table 1 for specific grouping scheme)
From 9:00 on day 0 to 9:00 on day 6, the mice in groups 2 to 9 were given 2% DSS aqueous solution for 6 days (from day 0 to day 6), after which the mice were allowed to freely drink normal water for 3 days (from 9:00 on day 6 to before necropsy on day 9). The day of modeling was counted as day 0. The DSS aqueous solution was wrapped in tin foil to protect it from light. The DSS aqueous solution was replaced every 2 days.
The mice in group 1 are allowed to drink normal water freely for 9 days (from 9:00 on day 0 to before necropsy on day 9).
The recording frequency was once a day, and 4 levels were rated according to the following standards:
Bloody stool (0: negative; 4: positive);
Stool score (0: normal; 2: loose stool; 4: diarrhea)
Daily Disease Index (DAI) was obtained by dividing the sum the scores of the above 3 parts by 3. DAI-time (day) curve based on the daily DAI score was plotted, and the peak area (AUC) under the curve was calculated. The reduction ratio of DAI AUC was calculated by comparing the administration group with the vehicle group, with a calculation formula of (DAI AUCadministration group-DAI AUCvehicle)/DAI AUCVehicle×100%

Structure (SMILES)	change in vivo at 10 mg/kg [%]
Cc1cc(Nc2nc(N[C@@H]3C[C@H]4CC[C@@H](C3)N4CCC#N)nc3ccsc23)n[nH]1 [Embodiment 60, 3-((3-exo)-3-((4-((5-methyl-1H-pyrazol-3-yl)amino)thieno[3,2-d]pyrimidin-2-yl)amino)-8-azabicyclo[3.2.1]oct-8-yl)propionitrile]	-20.8
COc1ccc2c(Nc3cc(C)[nH]n3)nc(N[C@@H]3C[C@H]4CC[C@@H](C3)N4CCC#N)nc2c1 [Embodiment 169, 3-((3-exo)-3-((7-methoxyl-4-((5-methyl-1H-pyrazol-3-yl)amino)quinazolin-2-yl)amino)-8-azabicyclo[3.2.1]oct-8-yl)propionitrile]	-34.3
Cc1cc(Nc2nc(N[C@@H]3C[C@H]4CC[C@@H](C3)N4CCC#N)nc3cc(Br)ccc23)n[nH]1 [Embodiment 170, 3-((3-exo)-3-((7-bromine-4-((5-methyl-1H-pyrazol-3-yl)amino)quinazolin-2-yl)amino)-8-azabicyclo[3.2.1]oct-8-yl)propionitrile]	-27.9
Cc1cc(Nc2nc(N[C@@H]3C[C@H]4CC[C@@H](C3)N4S(=O)(=O)N3CC(C#N)C3)nc3ccccc23)n[nH]1 [Embodiment 213, 1-(((3-exo)-3-((4-((5-methyl-1H-pyrazol-3-yl)amino)quinazolin-2-yl)amino)-8-azabicyclo[3.2.1]oct-8-yl)sulfonyl)azetindin-3-formonitrile]	-24.4
Cc1cc(Nc2nc(N[C@@H]3C[C@H]4CC[C@@H](C3)N4S(=O)(=O)N3CC(C#N)C3)nc3cc(Cl)ccc23)n[nH]1 [Embodiment 214]	-28.9
Cc1cc(Nc2nc(N[C@@H]3C[C@H]4CCC[C@@H](C3)N4C(=O)CN3CCOCC3)nc3sccc23)n[nH]1 [Embodiment 246, 1-((3-exo)-3-((4-((5-methyl-1H-pyrazol-3-yl)amino)thieno[2,3-d]pyrimidin-2-yl)amino)-9-azabicyclo[3.3.1]non-9-yl)-2-morpholinoethane-1-one]	-38.6
CNCC(=O)N1[C@@H]2CCC[C@H]1C[C@H](Nc1nc(Nc3cc(C)[nH]n3)c3ccsc3n1)C2 [Embodiment 247, 1-((3-exo)-3-((4-((5-methyl-1H-pyrazol-3-yl)amino)thieno[2,3-d]pyrimidin-2-yl)amino)-9-azabicyclo[3.3.1]non-9-yl)-2-(methylamino)-ethane-1-one]	-22.1
Cc1cc(Nc2nc(N[C@@H]3C[C@H]4CCC[C@@H](C3)N4C(=O)c3ccccn3)nc3sccc23)n[nH]1 [Embodiment 260, ((3-exo)-3-((4-((5-methyl-1H-pyrazol-3-yl)amino)thieno[2,3-d]pyrimidin-2-yl)amino)-9-azabicyclo[3.3.1]non-9-yl)(pyridin-2-yl)methanone]	-23.4
Cc1cc(Nc2nc(N[C@@H]3C[C@H]4CCC[C@@H](C3)N4CCC#N)nc3scnc23)n[nH]1 [Embodiment 278, 3-((3-exo)-3-((7-((5-methyl-1H-pyrazol-3-yl)amino)thiazolo[5,4-d]pyrimidin-5-yl)amino)-9-azabicyclo[3.3.1]non-9-yl)propionitrile]	-34.9
